From patent US6399298B1, “Ku70—related methods” (Sloan-Kettering Institute for Cancer Research, priority 1998, dated 2002)

What was measured:
[1] = test system: cells derived from Ku70 knock-out mice; experiment: Survival experiments with cells derived from Ku70 knock-out mice; type: cell-based; details: Ku70 knock-out mouse cells, FIG. 12
[2] = test system: cells derived from Ku80 knock-out mice; experiment: Survival experiments with cells derived from Ku80 knock-out mice; type: cell-based; details: Ku80 knock-out mouse cells, FIG. 12
[3] = test system: HeLa cells expressing antisense Ku70; experiment: Cytotoxicity in stable HeLa cells expressing antisense Ku70 RNA (Tet-Off); type: cell-based, human; details: adriamycin 1 μg/ml; expression of Ku70 antisense RNA; FIG. 13
Description: Effect of (A) radiation, and (B) adriamycin on different cell types. O=HeLa controls cells; ▪=HeLa cells expressing antisense Ku70; ▴=HeLa cell expressing antisense Ku80.
Stable HeLa cells, containing human Ku70 cDNA or human Ku80 cDNA, in the antisense orientation, under the regulation of the Tet-Off™ expression system (Clonetech), were established. Upon induction of the expression system these cells should produce antisense Ku70 or Ku80 RNA, respectively. Experiments were performed showing (FIG. 13) that expression of either Ku70 or Ku80 antisense RNA increased the cytotoxic effect adriamycin by 3-5 fold at 1 μg/ml and that expression of Ku70 antisense RNA increased the cytotoxic effect of γ-radiation approximately 5 fold (at 6 Gy).

[4] = test system: HeLa cells expressing antisense Ku80; experiment: Cytotoxicity in stable HeLa cells expressing antisense Ku80 RNA (Tet-Off); type: cell-based, human; details: adriamycin 1 μg/ml; expression of Ku80 antisense RNA; FIG. 13

| Compound | sensitivity of cells to the agent (survival) [1] | sensitivity of cells to the agent (survival) [2] | increase of the cytotoxic effect of adriamycin [3] | increase of the cytotoxic effect of adriamycin [4] |
| --- | --- | --- | --- | --- |
| COc1cccc2c1C(=O)c1c(O)c3c(c(O)c1C2=O)C[C@@](O)(C(=O)CO)C[C@@H]3O[C@H]1C[C@H](N)[C@H](O)[C@H](C)O1 [adriamycin] | very sensitive | very sensitive | 3-5 fold | 3-5 fold |
| bleomycin | very sensitive | very sensitive |  |  |
